# Measurements: article PMC3498381, “Isolated Toll-like Receptor Transmembrane Domains Are Capable of Oligomerization” (PLoS ONE, 2012)
# No end group written: not given here.
# Columns and labels:
# [1] = tested on: TLR2 TMD (functional ToxR chimera); assay: Dominant-negative (heterotypic) ToxR assay, TLR2 as dominant phenotype; format: cell-based; settings: Miller units normalized to poly-Leu* = 1 and corrected for expression, lower = stronger interaction, N in table
# From the text: Next, we investigated heterotypic interactions of the TLRs. We specifically studied TLR2, TLR1, and TLR6 because they are cell surface expressed receptors known to form functional heterodimers. To determine the ability of these three cell surface TLRs to have heterotypic interactions within its family, we studied the ability of the TLR1, TLR2, and TLR6 TMDs to interact with the TLR receptors also expressed at the cell surface; namely, TLR1, TLR2, TLR4, TLR5, TLR6, and TLR10. We monitored these interactions using a dominant-negative ToxR assay (Fig. S1B) which works by having a second TMD expressed with a non-functional ToxR* intracellular domain. This ToxR* domain is incapable of binding the ctx promoter making any interactions with this second expressed TMD unable to produce the reporter enzyme. As such, any interaction between the functional ToxR and non-functional ToxR* TMDs will result in a reduction in signal output.
# Figure 3 Cell- Surface Toll-like Recptor Heterotypic Interactions. (A) A dominant-negative ToxR assay was used to study heterotypic interactions of the cell-surface TLRs. Two TLR TMDs were encoded in the FHK12 E.coli reporter strain, one with a functional ToxR domain (dominant phenotype) and one with a nonfunctional ToxR* domain (negative phenotype). Interaction between the two different TMDs leads to a reduction in signal from that seen for homotypic interactions. The TMDs for GpA, TLR1, TLR2, and TLR6 were used with the functional ToxR domain while TMDs for poly-Leucine, TMD5, integrin αIIb, TLR1, TLR2, TLR4, TLR5, TLR6, and TLR10 were used with the nonfunctional ToxR* domain. Interactions were most prominent for the TLRs known to have heterotypic interactions – TLR2-TLR1 and TLR2-TLR6. […] We also saw interaction with the same TMD further validating the homotypic interactions. […] Each dominant phenotype was done in 3 technical replicates with each negative phenotype and >6 measurements made for each replicate. Error bars depict the standard error of the mean (n- Tables S3, S5, S7, S9). Western blots staining for MBP were performed to monitor expression levels of the constructs with the upper band being functional ToxR chimeras and the lower band being nonfunctional ToxR* chimeras – (B) GpA, (C) TLR1, (D) TLR2, and (E) TLR6. Significant differences for the same dominant phenotype were determined by use of the Tukey-Kramer test.
# For heterotypic interactions one plasmid containing a functional ToxR domain (200 ng) and a second plasmid containing a non-functional ToxR* domain (200 ng) were co-transformed into chemically competent FHK12 E. coli (400 µL) by incubating on ice for 30 min, heat shock at 42°C for 90 s, incubation on ice for 2 min, and addition of SOC media (1600 µL) followed by incubation with shaking for 1 h at 37°C. This transformation mixture (50 µL) was then used to spread LB-agar plates containing cholaramphenicol (30 µg/mL), kanamycin (33 µg/mL), and ampicillin (100 µg/mL) and grown overnight at 37°C. Single colonies were selected from the plates and grown in 5 mL LB media containing cholaramphenicol (30 µg/mL), kanamycin (33 µg/mL), ampicillin (100 µg/mL), and arabinose (0.0025%) overnight (16–20 h) with shaking at 37°C. Analysis of activity was monitored as described in homotypic ToxR assays. Western blotting was done in the same manner as the homotypic ToxR assay with one band appearing for the functional ToxR construct and a second band for the nonfunctional ToxR* construct. Data were normalized to poly-Leu* Miller Units and corrected for varying protein expression levels using ImageJ (NIH) as previously reported.
# [2] = tested on: homotypic TMD-TMD interaction (ToxR / ctx promoter / β-galactosidase reporter in FHK12 E. coli); assay: Homotypic ToxR reporter assay (β-galactosidase); format: cell-based; settings: β-galactosidase Miller units normalized to GpA signal and expression levels; FHK12 E. coli; 3 replicates with >6 measurements each, N in table
# Procedure: . Various plasmid constructs for this assay make it possible to monitor both homotypic and heterotypic interactions that are driven by TMD-TMD association (Fig. S1).
# We first investigated homotypic interactions because the majority of the TLR family members function as homodimers. […] This ΔTM construct consists of the same maltose binding protein and ToxR domain, but lacks a TMD for proper membrane insertion (Fig. S2). Statistical analysis using the Tukey-Kramer test was performed to analyze any significant differences between all possible pairs of average interaction potentials (Table S2). […] Among the TLRs, no discernable differences in grouping based on statistical analysis at p = 0.05 were indicated as all receptors belonged to multiple groups, except for TLR1, which with the lowest interaction potential among the family of receptors only existed in one group (Table S1).
# Figure 2 Toll-like Receptor Transmembrane Domain Homotypic Interactions. (A) The ToxR assay was used to study homotypic interactions of the TLR TMDs. A chimeric protein expressing the TMD of interest was monitored through β-galactosidase activity. In all cases, we saw that the TLRs have interaction potential solely from TMD-TMD interactions. Each TLR TMD interaction measurement analysis was performed on 3 technical replicates with >6 measurements for each replicate. Error bars depict the standard error of the mean (n – Table S1). Western blots staining for MBP were performed to monitor expression levels of the constructs – (B) chimeric maltose binding protein expression, (C) endogenous maltose binding protein expression. All samples were normalized to the GpA signal and expression levels.
# Briefly, the ToxR plasmids containing the TMD of interest (200 ng) were transformed into chemically competent FHK12 E. coli (200 µL) by incubating on ice for 30 min, heat shock at 42°C for 90 s, incubation on ice for 2 min, and addition of SOC media (800 µL) followed by incubation with shaking for 1 h at 37°C. This transformation mixture (50 µL) was then spread on LB agar plates containing cholaramphenicol (30 µg/mL) and ampicillin (100 µg/mL) and grown overnight at 37°C. Single colonies were selected from the plates in triplicate and added to 5 mL of LB media containing cholaramphenicol (30 µg/mL), ampicillin (100 µg/mL), and arabinose (0.0025%). These cultures were incubated overnight (16–20 h) with shaking at 37°C. The β-galactosidase activity was monitored using a Beckman Coulter DTX 880 plate-reader. First 5 µL of each culture was plated >6 times in a clear 96-well flat bottom culture plate (Sarstedt) containing 100 µL of Z-buffer/chloroform (1% β-mercaptoethanol, 10% chloroform, 89% Z buffer: […], 10 mM potassium chloride, 1 mM magnesium sulfate, pH 7.0). The cell densities of each well were recorded by measuring the OD595. Bacteria were lysed by the addition of 50 µL Z-buffer/SDS (1.6% sodium dodecyl sulfate w/v in Z-buffer) and shaking at 28°C for 10 min. Enzymatic activity was measured by adding 50 µL of Z-buffer/ortho-Nitrophenyl-β-[…] (ONPG) (0.4% ONPG w/v in Z-buffer) and monitoring the reaction at 405 nm for a period of 20 min at 30 s intervals. Miller units were calculated using the equation: [drawing 1]
# Western blotting was performed with antiserum recognizing the maltose-binding protein moiety of the constructs (Abcam). Data were normalized to GpA Miller Units and protein expression levels using ImageJ (NIH) as reported previously.
Substance,Mean TLR2-TMD* heterotypic interaction (ToxR signal) [1],Mean homotypic TMD interaction (ToxR) [2]
"TLR2*: TLR2 TMD chimera with nonfunctional ToxR* domain (negative phenotype) (GNRASALVSGMCCALFLLILLTGVLCGSLIN; cysteine pairing not given here; also: fused to non-functional ToxR* (S87H) and maltose binding protein, ends not given here)",0.1930,0.7829
"TLR1*: TLR1 TMD chimera with nonfunctional ToxR* domain (negative phenotype) (GNRASITLLIVTIVATMLVLAVTVTSLCSYLGSLIN; also: fused to non-functional ToxR* (S87H) and maltose binding protein, ends not given here)",0.2198,0.4775
"TLR6*: TLR6 TMD chimera with nonfunctional ToxR* domain (negative phenotype) (GNRASITLLIVTIGATMLVLAVTVTSLCIYLGSLIN; also: fused to non-functional ToxR* (S87H) and maltose binding protein, ends not given here)",0.2588,0.5764
